Earlier results on one compound are cited in US20080318919A1, “Cefquinome Compositions and Methods of Their Use” (Intervet International B.V., priority 2005, published 2008).

The subject of the data set is Mannheimia haemolytica. The following applies: concentration that inhibits the growth of 90% of the target pathogen.

Take `CO/N=C(\C(=O)N[C@@H]1C(=O)N2C(C(=O)[O-])=C(C[n+]3cccc4c3CCCC4)CS[C@H]12)c1csc(N)n1` [cefquinome, Cefquinome]: the MIC90 entry is listed as “about 0.25 μg/ml”.
